{"source": "patent US20200291100A1", "about": "“TREATMENT OF AGE-RELATED AND MITOCHONDRIAL DISEASES BY INHIBITION OF HIF-1 ALPHA FUNCTION” (President and Fellows of Harvard College, priority 2012, published 2020)", "system": "TFAM promoter", "experiment": "TFAM promoter luciferase assay in primary WT myoblasts treated with DMOG", "type": "cell-based, mouse", "conditions": "DMOG versus DMSO", "experimental": "TFAM promoter, VHL promoter, HRE and c-Myc activity were determined using a luciferase-based system. Luciferase activity was measured using the Dual-Luciferase Reporter Assay System (Promega) with Renilla as the reference.\nTFAM promoter activity was evaluated using a TFAM promotes-luc plasmid. A fragment of the mouse Tfam promoter (1.4 kb upstream of the coding sequence) was cloned into a pGL4.15 vector (Promega). Luciferase activity was measured using the Dual-Luciferase Reporter Assay System (Promega) with Renilla as the reference 48 h after transfection.\nc-Myc was previously shown to directly bind to the TFAM promoter in cancer cells (Li et al., 2005) and consistent with this report, it was observed that knockdown of c-Myc in primary myoblasts leads to decreased TFAM promoter activity (FIG. 16E). Mutation of the c-Myc consensus sequence, CACGTG, present in the TFAM promoter decreased the promoter activity by about half of the full length promoter (FIG. 16F). […] Next it was tested whether c-Myc binding site was required for SIRT1's ability to induce TFAM promoter activity. Overexpression of SIRT1 in primary myoblasts lead to an increase in the full length TFAM promoter activity, however disruption of c-Myc binding site was sufficient to completely prevent the ability of SIRT1 to induce TFAM promoter activity (FIG. 16H). […]"}
{"smiles": "COC(=O)CNC(=O)C(=O)OC", "note": "[DMOG, dimethyloxaloylglycine]", "values": [{"measurement": "full length TFAM promoter activity", "result": "reduces"}, {"measurement": "TFAM promoter activity, c-Myc consensus sequence mutation", "setting": "in the absence of the c-Myc binding site", "result": "does not have an additive effect"}]}
